Data: ChEMBL document CHEMBL4266014, “Development of Hybrid Phospholipid Mimics as Effective Agonists for Liver Receptor Homologue-1” (ACS Med Chem Lett, 2018)
Active and inactive are the calls of the source. No cut-off for these calls is given here.

Target: Nuclear receptor subfamily 5 group A member 2 (Homo sapiens) (UniProt O00482)
Assay: Agonist activity at recombinant full length human LRH1 expressed in HeLa cells up to 30 uM after 24 hrs by dual-glo luciferase reporter gene assay
Format: cell-based

Nuclear receptor subfamily 5 group A member 2 (Homo sapiens), sequence (O00482 whole entry): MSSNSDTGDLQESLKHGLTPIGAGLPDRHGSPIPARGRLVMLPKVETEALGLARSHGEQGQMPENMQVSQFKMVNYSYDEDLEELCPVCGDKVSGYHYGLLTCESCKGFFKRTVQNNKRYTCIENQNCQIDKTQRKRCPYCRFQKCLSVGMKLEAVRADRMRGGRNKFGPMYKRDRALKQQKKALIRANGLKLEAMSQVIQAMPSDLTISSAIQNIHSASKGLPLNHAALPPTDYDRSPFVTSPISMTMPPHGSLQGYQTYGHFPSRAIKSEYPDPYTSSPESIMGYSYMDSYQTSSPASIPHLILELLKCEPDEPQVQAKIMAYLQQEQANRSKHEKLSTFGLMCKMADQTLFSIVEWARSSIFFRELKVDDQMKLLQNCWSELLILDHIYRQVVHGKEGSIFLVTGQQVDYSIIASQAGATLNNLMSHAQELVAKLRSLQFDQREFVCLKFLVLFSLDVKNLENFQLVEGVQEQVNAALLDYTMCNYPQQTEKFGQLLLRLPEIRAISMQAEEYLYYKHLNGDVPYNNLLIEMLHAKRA

| SMILES | Activity |
| --- | --- |
| C=C(c1ccccc1)[C@@]12CC[C@@H](O)[C@@H]1CC(CCCCCCCOP(=O)([O-])OCC[N+](C)(C)C)=C2c1ccccc1 | inactive |
| C=C(c1ccccc1)[C@@]12CC[C@@H](O)[C@@H]1CC(CCCCC(=O)O)=C2c1ccccc1 | inactive |
| C=C(c1ccccc1)[C@@]12CC[C@@H](O)[C@@H]1CC(CCCCCC(=O)O)=C2c1ccccc1 (relative stereo) | inactive |
| C=C(c1ccccc1)[C@@]12CC[C@@H](O)[C@@H]1CC(CCCCCCCCOP(=O)([O-])OCC[N+](C)(C)C)=C2c1ccccc1 | inactive |
| C=C(c1ccccc1)[C@@]12CC[C@@H](O)[C@@H]1CC(CCCCCCOP(=O)([O-])OCC[N+](C)(C)C)=C2c1ccccc1 | inactive |
| C=C(c1ccccc1)[C@@]12CC[C@@H](O)[C@@H]1CC(CCCCCCC(=O)O)=C2c1ccccc1 (relative stereo) | inactive |
| C=C(c1ccccc1)[C@@]12CC[C@@H](O)[C@@H]1CC(CCCC(=O)O)=C2c1ccccc1 (relative stereo) | inactive |
